Assay results taken from patent publication US4536335A, “Carbapenem antibiotics” (Bristol-Myers Company, priority 1983, dated 1985).
Values after ≈ are worked out from the molar mass of the structure shown.

Assays:
P. aeruginosa A21213 = assay: In vitro MIC, tube dilution; type: cell-based; details: Pseudomonas aeruginosa, A21213, tube dilution, Nutrient Broth, overnight incubation at 37° C.; additional data table
[1] = Urinary recovery after intramuscular administration to mice; type: in vivo; details: mouse, urine, im, 20 mg/kg, intramuscular dose of 20 mg/kg, 0-6 hour collection, read-out: Urine Recovery
Protocol: Compounds were solubilized in 0.1 M phosphate buffer pH 7. Values are from a single test; 4 mice per compound.
(§1) Also shown is the urinary recovery in the mice.
***Recovery based on 0-6 hour collection

P. mirabilis A-9900 = assay: In vitro MIC, tube dilution; type: cell-based; details: Proteus mirabilis, A9900, tube dilution, Nutrient Broth, overnight incubation at 37° C.; additional data table
P. aeruginosa A-9843a = assay: Protective effect in the intramuscular treatment of infected mice (PD50); type: in vivo; details: Pseudomonas aeruginosa, A9843A, im, read-out: PD50/treatment, P. aeruginosa A9843A
Protocol: The PD50 (dose in mg/kg required to give protection to 50% of the infected mice) is indicated.
Treatment Schedule: Mice were treated i.m. with drugs 0 and 2 hours post-infection; 5 mice per dose were used for each test
*For compound of Ex. 2, mice were infected i.p. with 2 × 10^9
compounds of Ex. 4 and 5, mice were infected i.p. with ~9 ×
were treated i.m. with drugs 0 and 2 h postinfection.

E. cloacae A-9659 = assay: In vitro MIC, tube dilution; type: cell-based; details: Enterobacter cloacae, A9659, tube dilution, Nutrient Broth, overnight incubation at 37° C.; additional data table
Description: N-formimidoyl thienamycin was included as a comparison compound.

S. faecalis A20688 = assay: In vitro MIC, tube dilution; type: cell-based; details: Enterococcus faecalis, A20688, tube dilution, Nutrient Broth, overnight incubation at 37° C.; additional data table
K. pneumoniae A-9664 = assay: In vitro MIC, tube dilution; type: cell-based; details: Klebsiella pneumoniae, A9664, tube dilution, Nutrient Broth, overnight incubation at 37° C.; additional data table
P. rettgeri A22424 = assay: In vitro MIC, tube dilution; type: cell-based; details: Providencia rettgeri, A22424, tube dilution, Nutrient Broth, overnight incubation at 37° C.; additional data table
S. pyogenes A-9604 = assay: In vitro MIC, tube dilution; type: cell-based; details: Streptococcus pyogenes, A9604, tube dilution, Nutrient Broth, overnight incubation at 37° C.; additional data table
E. coli A15119 = assay: In vitro MIC, tube dilution; type: cell-based; details: Escherichia coli, A15119, tube dilution, Nutrient Broth, overnight incubation at 37° C.; additional data table
P. vulgaris A21559 = assay: In vitro MIC, tube dilution; type: cell-based; details: Proteus vulgaris, A21559, tube dilution, Nutrient Broth, overnight incubation at 37° C.; additional data table
S. pneumoniae A-9585 = assay: In vitro MIC, tube dilution; type: cell-based; details: Streptococcus pneumoniae, A9585, Nutrient Broth, overnight incubation at 37° C., additional data table
[2] = Blood levels in mice after intramuscular administration; type: in vivo; details: mouse, blood, im, 20 mg/kg, intramuscular dose of 20 mg/kg
Description: Compounds were solubilized in 0.1 M phosphate buffer pH 7. Values are fro
a single test; 4 mice used per compound.
*t1/2 refers to halflife in minutes
**AUC refers to the area under the blood concentrationtime curve
as §1
Compounds were solubilized in 0.1 M phosphate buffer, pH 7.
Values based on a single test; 4 mice per compound.
*T1/2 refers to halflife in minutes

[3] = Half-life in phosphate buffer solution; type: physicochemical; details: phosphate buffer, pH 7.4, concentration of 10^-4 M in phosphate buffer pH 7.4 at 36.8° C.; read-out: t1/2 (solution stability) (converted)
Protocol: A solution of para-nitrobenzyl 3-[2-(N-methylthiomorpholinium diphenylphosphate)ethylthio]-6α-[1'-(R)-hydroxyethyl]-7-oxo-1-azabicyclo[3.2.0]hept-2-ene-2-carboxylate (1.31 g, 1.76 mmol) in 0.1 M pH 7.4 phosphate buffer (48.8 mL), tetrahydrofuran (20 mL) and diethyl ether (20 mL) was hydrogenated over 10% pd/C (1.5 g) in a Parr shaker for 1 h at 40 psi. The reaction mixture was diluted with diethyl ether (40 mL) and the phases were separated. The organic phase was washed with water (2×5 mL). The aqueous phases were combined, filtered through a #52 hardened filter paper, washed with diethyl ether (2×20 mL) and pumped under vacuum. The aqueous solution was poured on a silica gel reverse phase column and the desired carbapenem was eluted with 5% acetonitrile-water.
To a solution of p-nitrobenzyl (5R,6S)-3-[2-(1-methylmorpholino)ethylthio]-6-[(R)-1-hydroxyethyl]-7-oxo-1-azabicyclo[3.2.0]hept-2-ene-2-carboxylate diphenylphosphate (0.360 g, 0.49 mmol) in 13 mL of phosphate buffer (0.05 M pH 7.4) was added 0.36 g of 10% palladium-on-charcoal, 20 mL of tetrahydrofuran and 20 mL of diethyl ether. This mixture was hydrogenated (Parr) at 32 psi for 1 h. The mixture was filtered through Celite and the filter pad was washed with H2 O and diethyl ether. The aqueous phase was separated and the pH was adjusted to 7.0 with additional pH 7.4 phosphate buffer. After removing residual organic solvents in vacuo the aqueous solution was applied to a C18 reverse-phase column.
To a solution of (5R,6S)paranitrobenzyl 3-[2-(1,4-dimethyl-1-piperazinium)ethylthio]-6-[1-(R)-hydroxyethyl]-7-oxo- 1-azabicyclo[3.2.0]hept-2-ene-2-carboxylate diphenylphosphate (0.47 g, 0.623 mmol) in wet tetrahydrofuran (25 mL) was added diethyl ether (25 mL), potassium phosphate monobasic-sodium hydroxide buffer (13 mL, pH 7.22) and 10% palladium on charcoal (0.47 g). The resulting mixture was hydrogenated at 23° C. under 40 psi for 1 h. The two layers were separated and the organic layer was extracted with water (2×7 mL).
To a cold (-10° C.) solution of (5R,6S)-3-[2 -(N-methyl-thiomorpholinium)ethylthio]-6-[1-(R)-hydroxyethyl]-7-oxo-1-azabicyclo(3.2.0)-hept-2-ene-2-carboxylate (608 mg, 1.65 mmol) in a 1:1 mixture of acetonitrile-water (9 mL) was added m-chloroperbenzoic acid (334.8 mg, 1.65 mmol) in small portion over a 1 hour period. The mixture was then diluted with water (15 mL) and washed with diethyl ether (3×15 mL).
A mixture of (5R,6S) paranitrobenzyl 3-[2-(1,4,4-trimethyl-1-piperazinium)ethylthio]-6-[1R-hydroxyethyl]-7-oxo- 1-azabicyclo(3.2.0)hept-2-ene-2-carboxylate bischloride (0.40 g, 0.68 mmol), phosphate buffer (30 mL, 0.05M, pH 7.0), tetrahydrofuran (10 mL), ether (30 mL) and 10% palladium on charcoal (0.40 g) was hydrogenated at 23° C. under 35 psi for 1 h. The two phases were separated. The organic phase was extracted with water (10 mL).

With `C[C@@H](O)[C@H]1C(=O)N2C(C(=O)[O-])=C(SCC[N+]3(C)CCN(C)CC3)C[C@H]12` [Example 4, (5R,6S)3-[2-(1,4-dimethyl-1-piperazinium)-ethylthio]-6-[1-(R)-hydroxyethyl]-7-oxo-1-azabicyclo-[3.2.0]hept-2-ene-2-carboxylate] the MIC (P. aeruginosa A21213) was 1 µg/mL (≈ 2.71 µM), the dose excreted at 6 h [1] was 33 ± 11% and the MIC (P. mirabilis A-9900) was 0.25 µg/mL (≈ 0.677 µM). The ED50 (P. aeruginosa A-9843a) was 2.7 mg/kg, the MIC (E. cloacae A-9659) was 1 µg/mL (≈ 2.71 µM) and the MIC (S. faecalis A20688) was 2 µg/mL (≈ 5.41 µM). The MIC (K. pneumoniae A-9664) was 0.25 µg/mL (≈ 0.677 µM), the MIC (P. rettgeri A22424) was 1 µg/mL (≈ 2.71 µM) and the MIC (S. pyogenes A-9604) was 0.004 µg/mL (≈ 0.0108 µM). For the same molecule, the MIC (E. coli A15119) was 0.13 µg/mL (≈ 0.352 µM), the MIC (P. vulgaris A21559) was 0.25 µg/mL (≈ 0.677 µM) and the MIC (S. pneumoniae A-9585) was 0.004 µg/mL (≈ 0.0108 µM). The Cmax [2] was 17300 ng/mL, the AUC ([2]; read-out: Blood AUC) was 7600 ng·h/mL and the half-life ([2]; read-out: Blood T1/2) was 0.2 h. The half-life [3] was 12.4 h.
